Assay results published in patent US12077503B2, “Substituted cyclic amides and their use as herbicides” (FMC CORPORATION, priority 2015, dated 2024).

Columns and labels:
Assay type in all cases: in vivo
Kochia (Kochia scoparia) [1] = assay: Test A preemergence; conditions: Bassia scoparia, pre-emergence, 240 h, 0 to 100 scale where 0 is no effect and 100 is complete control, read-out: Kochia plant response rating
Summary of the method: (§1)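 Seeded soil received test chemicals as a preemergence directed spray, and seedlings at one to two leaves, 2–10 cm tall, received them postemergence, in a non-phytotoxic, surfactant-containing solvent mixture. Pots were held in a greenhouse for approximately 10 d, then rated for injury from 0, no effect, to 100, complete control.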

[2] = system: barnyardgrass (Echinochloa crus-galli); assay: Test A preemergence; conditions: Echinochloa crus-galli, pre-emergence, 240 h, 0 to 100 scale where 0 is no effect and 100 is complete control, read-out: Barnyardgrass plant response rating
Summary of the method: as §1

[3] = system: giant foxtail (Setaria faberii); assay: Test A preemergence; conditions: Setaria faberi, pre-emergence, 240 h, 0 to 100 scale where 0 is no effect and 100 is complete control, read-out: Foxtail, Giant plant response rating
Summary of the method: as §1

[4] = system: pigweed (Amaranthus retroflexus); assay: Test A preemergence; conditions: Amaranthus retroflexus, pre-emergence, 240 h, 0 to 100 scale where 0 is no effect and 100 is complete control, read-out: Pigweed plant response rating
[5] = system: ragweed (common ragweed, Ambrosia elatior); assay: Test A preemergence; conditions: Ambrosia artemisiifolia, pre-emergence, 240 h, 0 to 100 scale where 0 is no effect and 100 is complete control, read-out: Ragweed plant response rating
Summary of the method: as §1

[6] = system: ryegrass, Italian (Italian ryegrass, Lolium multiflorum); assay: Test A preemergence; conditions: Lolium multiflorum, pre-emergence, 240 h, 0 to 100 scale where 0 is no effect and 100 is complete control, read-out: Ryegrass, Italian plant response rating
Summary of the method: as §1

[7] = system: Galium (catchweed bedstraw, Galium aparine); assay: Test A postemergence; conditions: Galium, post-emergence, 240 h, read-out: Galium plant response rating (0 to 100 scale)
Summary of the method: as §1

Kochia (Kochia scoparia) [8] = assay: Test A postemergence; conditions: Bassia scoparia, post-emergence, 240 h, read-out: Kochia plant response rating (0 to 100 scale)
Summary of the method: as §1

[9] = system: barnyardgrass (Echinochloa crus-galli); assay: Test A postemergence; conditions: Echinochloa crus-galli, post-emergence, 240 h, read-out: Barnyardgrass plant response rating (0 to 100 scale)
Summary of the method: as §1

[10] = system: blackgrass (Alopecurus myosuroides); assay: Test A postemergence; conditions: Alopecurus myosuroides, post-emergence, 240 h, read-out: Blackgrass plant response rating (0 to 100 scale)
Summary of the method: as §1

corn (Zea mays) = assay: Test A postemergence; conditions: Zea mays, post-emergence, 240 h, read-out: Corn plant response rating (0 to 100 scale)
Summary of the method: as §1

[11] = system: giant foxtail (Setaria faberii); assay: Test A postemergence; conditions: Setaria faberi, post-emergence, 240 h, read-out: Foxtail, Giant plant response rating (0 to 100 scale)
Summary of the method: as §1

[12] = system: pigweed (Amaranthus retroflexus); assay: Test A postemergence; conditions: Amaranthus retroflexus, post-emergence, 240 h, read-out: Pigweed plant response rating (0 to 100 scale)
Summary of the method: as §1

[13] = system: ragweed (common ragweed, Ambrosia elatior); assay: Test A postemergence; conditions: Ambrosia artemisiifolia, post-emergence, 240 h, read-out: Ragweed plant response rating (0 to 100 scale)
Summary of the method: as §1

[14] = system: ryegrass, Italian (Italian ryegrass, Lolium multiflorum); assay: Test A postemergence; conditions: Lolium multiflorum, post-emergence, 240 h, read-out: Ryegrass, Italian plant response rating (0 to 100 scale)
Summary of the method: as §1

[15] = system: wheat (Triticum aestivum); assay: Test A postemergence; conditions: Triticum aestivum, post-emergence, 240 h, Postemergence, 31 g ai/ha; 0 is no effect, 100 is complete control; read-out: Wheat plant response rating (0 to 100 scale)
Summary of the method: as §1

[16] = system: barnyardgrass (Echinochloa crus-galli); assay: Test B flooded paddy test; conditions: Echinochloa crus-galli, 250 g ai/ha, Flood; 0 to 100 scale where 0 is no effect and 100 is complete control; read-out: Barnyardgrass plant response rating
Summary of the method: (§2)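 Flooding to 3 cm over soil accompanied treatment, which consisted of adding compound to the standing water around 2-leaf plants; depth was then maintained. Visual assessment versus controls followed at 13 to 15 d (scale 0–100, 0 meaning no effect).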

[17] = system: ducksalad (Heteranthera limosa); assay: Test B flooded paddy test; conditions: Heteranthera limosa, 250 g ai/ha, Flood; 0 to 100 scale where 0 is no effect and 100 is complete control; read-out: Ducksalad plant response rating
Summary of the method: as §2

rice (Oryra sativa) = assay: Test B flooded paddy test; conditions: Oryza sativa, 250 g ai/ha, Flood; 0 to 100 scale where 0 is no effect and 100 is complete control; read-out: Rice plant response rating
Summary of the method: as §2

[18] = system: sedge, umbrella (small-flower umbrella sedge, Cyperus difformis); assay: Test B flooded paddy test; conditions: Cyperus difformis, 250 g ai/ha, Flood; 0 to 100 scale where 0 is no effect and 100 is complete control; read-out: Sedge, Umbrella plant response rating
Summary of the method: as §2

[19] = 125 g ai/ha, preemergence, visual injury rating, approximately 10 d
[20] = 125 g ai/ha, postemergence, visual injury vs untreated controls after approx. 10 d, 0 = no effect, 100 = complete control
[21] = Postemergence, 31 g ai/ha, 0 is no effect, 100 is complete control

CN1C[C@H](c2ccc(F)c(Oc3ccccc3)c2)[C@@H](C(=O)Nc2cccc(F)c2F)C1=O [Compound 1259]
30%: pest or weed control at 31 g/ha ([4]; 31 g ai/ha, Preemergence) | pest or weed control at 125 g/ha [4, 19] | pest or weed control at 125 g/ha [6, 19] | pest or weed control at 31 g/ha [9, 21] | pest or weed control at 31 g/ha [11, 21]
80%: pest or weed control at 125 g/ha [7, 20] | pest or weed control at 125 g/ha [9, 20]
70%: plant injury at 125 g/ha (corn (Zea mays); [20]) | pest or weed control at 125 g/ha [11, 20]
60%: pest or weed control at 125 g/ha [2, 19] | pest or weed control at 31 g/ha [7, 21] | pest or weed control at 125 g/ha [12, 20]
40%: pest or weed control at 31 g/ha ([3]; 31 g ai/ha, Preemergence) | pest or weed control at 31 g/ha [12, 21]
0%: pest or weed control at 31 g/ha (Kochia (Kochia scoparia) [1]; 31 g ai/ha, Preemergence) | pest or weed control at 125 g/ha (Kochia (Kochia scoparia) [1]; [19]) | pest or weed control at 31 g/ha ([2]; 31 g ai/ha, Preemergence) | pest or weed control at 31 g/ha ([5]; 31 g ai/ha, Preemergence) | pest or weed control at 125 g/ha [5, 19] | pest or weed control at 31 g/ha ([6]; 31 g ai/ha, Preemergence) | pest or weed control at 125 g/ha (Kochia (Kochia scoparia) [8]; [20]) | pest or weed control at 31 g/ha (Kochia (Kochia scoparia) [8]; [21]) | pest or weed control at 125 g/ha [10, 20] | pest or weed control at 31 g/ha [10, 21] | plant injury at 31 g/ha (corn (Zea mays); [21]) | pest or weed control at 125 g/ha [13, 20] | pest or weed control at 31 g/ha [13, 21] | pest or weed control at 125 g/ha [14, 20] | pest or weed control at 31 g/ha [14, 21] | plant injury at 31 g/ha [15] | pest or weed control at 250 g/ha [16] | pest or weed control at 250 g/ha [17] | pest or weed control at 250 g/ha (rice (Oryra sativa)) | pest or weed control at 250 g/ha [18]
90%: pest or weed control at 125 g/ha [3, 19]
